Laboratory results taken from patent US5378848A, “Condensed imidazopyridine derivatives” (Shionogi & Co., Ltd., priority 1992, dated 1995).

Assays:
[1] = molecular target: Benzodiazepine Receptor; assay: Test on Binding to Benzodiazepine Receptor (inhibition of specific binding of tritium-labeled diazepam); design: species or system male Wistar rats; settings: rat cerebral cortex; 2 nM tritium-labeled diazepam; 0° C., 60 minutes; Ki=IC50÷(1+L/Kd)
Method: This test was carried out modifying partially a method of Moehler & Okada, Science, 198, 849-851 (1977). Receptor preparation was provided from the cerebral cortex of male Wistar rats (11-13 weeks age). Inhibitory action of the test compound on the specific binding of tritium-labeled diazepam to the receptor was evaluated as follows: 2 nM tritium-labeled diazepam and an aqueous solution of the test compound in 5 or 6 different concentrations were incubated with the receptor preparation at 0° C. for 60 minutes. The 50% inhibitory concentration (IC50) was measured by the concentration-response curve. In addition, the inhibitory constant (Ki) of the test compound was calculated by dissociation constant (Kd) and concentration (L) of tritium-labelled diazepam.

[2] = test system: Pentylenetetrazole-Induced Convulsion; assay: Potentiation of Pentylenetetrazole-Induced Convulsion (inverse agonist activity); assay type: in vivo; settings: Mus musculus, iv; male mice; test compound i.v.; pentylenetetrazole 90 mg/kg s.c.; 2-hour observation; probit method; read-out: ED50 (dose required to produce tonic convulsion and death in 50% of the animals)
Method: (§1) Inverse agonist activity was evaluated in this Experiment. Pentylenetetrazole was subscutaneously administered male mice (a group of 8-16 male mice was employed in each test) at a dose of 90 mg/kg immediately after intravenous injection of the test compound. The dose (ED50) required to produce tonic convulsion and death in 50% of the animals during subsequent 2-hour observation period was calculated by the probit method.

[3] = test system: Pentylenetetrazole-Induced Convulsion; assay: Antagonism of Pentylenetetrazole-Induced Convulsion (agonistic activity); assay type: in vivo; settings: Mus musculus, iv; male mice; test compound i.v.; pentylenetetrazole 125 mg/kg s.c.; 2-hour observation; probit method; read-out: ED50 (dose required to prevent tonic convulsion and death in 50% of the animals)
Method: as §1, with “Agonistic” for “Inverse agonist”, “subcutaneously” for “subscutaneously”, “125” for “90”, “prevent” for “produce”

[4] = test system: human memory; settings: M. Sarter et al., TINS 11, 13 (1988); cited from earlier work

Compound	Ki [1] [nM]	ED50 [2] [mg/kg]	ED50 [3] [mg/kg]	effect on human memory [4]
c1coc(-c2nc3cnc4c(c3[nH]2)CCCC4)c1 [Ia-5]	3.46	–	–	–
CC1(C)Cc2ncc3nc(-c4ccon4)[nH]c3c2C1 [Ie-1, 2-(3-Isoxazolyl]-7,7-dimethyl-1H-imidazo[4,5-d]-cyclopenta[b]pyridine]	7.2	0.25	–	–
c1cc(-c2nc3cnc4c(c3[nH]2)CCCCC4)no1 [Ic-6]	2.29	–	–	–
c1cc(-c2nc3cnc4c(c3[nH]2)CSCC4)no1 [If-1, 2-(3-Isoxazolyl)-1,6,7,9-tetrahydroimidazo[4,5-d]-thiopyrano[4,3-b]pyridine]	0.44	0.96	–	–
c1ccc(-c2nc3cnc4c(c3[nH]2)CCCC4)cc1 [Ia-1, 2-Phenyl-6,7,8,9-tetrahydro-1H-imidazo[4,5-c]quinoline]	13.7	–	7.85	–
Cc1cc(-c2nc3cnc4c(c3[nH]2)CCCCC4)on1 [Ic-7]	9.47	–	1.05	–
CCOC(=O)N1CCc2ncc3nc(-c4ccon4)[nH]c3c2C1 [Ig-1, 2-(3-isoxazolyl)-8-ethoxycarbonyl-6,7,8,9-tetrahydro-1H-imidazo[4,5-c]naphthylidine]	2.8	–	3.69	–
CN1C(=O)CN=C(c2ccccc2)c2cc(Cl)ccc21 [diazepam]	–	–	–	inhibits human memory
c1cc(-c2nc3cnc4c(c3[nH]2)CCCC4)no1 [Ia-7, 2-(3-Isoxazolyl) -6,7,8,9-tetrahydro-1H-imidazo[4,5-c]quinoline]	1.3	–	–	–
c1csc(-c2nc3cnc4c(c3[nH]2)CCCC4)c1 [Ia-3]	1.9	–	–	–
Cc1cc(-c2nc3cnc4c(c3[nH]2)COCC4)on1 [Ib-5]	6.97	–	0.8	–
c1cc(-c2nc3cnc4c(c3[nH]2)COCC4)no1 [Ib-7, 2-(3-Isoxazolyl)-1,6,7,9-tetrahydroimidazo[4,5-d]pyrano[4,3-b]pyridine]	2.09	1.27	–	–
c1csc(-c2nc3cnc4c(c3[nH]2)CCCCC4)c1 [Ic-3]	6.06	–	–	–
c1cc(-c2nc3cnc4c(c3[nH]2)CCC4)no1 [Id-1]	2.55	0.4	–	–
Cc1cc(-c2nc3cnc4c(c3[nH]2)CCC4)on1 [Id-2]	8.94	–	0.74	–
Cc1cc(-c2nc3cnc4c(c3[nH]2)CCCC4)on1 [Ia-6]	2.19	–	0.17	–
